In PMC5896380, “Selective imaging of cathepsin L in breast cancer by fluorescent activity-based probes” (Chemical Science, 2018):

System: cathepsins L and B in MDA-MB-231 cells
Experiment: Cathepsin labeling in MDA-MB-231 cells by SDS-PAGE and western blotting
Type: cell-based, human
Conditions: MDA-MB-231 cells
Experimental: Low passage MDA-MB-231 cells were seeded on 12-well plates (200 000 cells per well per 1 mL of medium) and cultured in Dulbecco’s Modification of Eagle’s Medium (DMEM) supplemented with 10% fetal bovine serum, 2 mM of L-glutamine, 100 units per mL penicillin and 100 μg mL^–1 streptomycin. […] To control for non-specific binding, the cells were preincubated with E64d (25 μM) for 2 hours prior to probe addition. At various time points, the medium was aspirated and the cells were gently washed twice with 1 mL of Dulbecco’s Phosphate-Buffered Saline (DPBS) and then trypsinized, harvested and centrifuged for 10 min (500 × g). The supernatants were removed by aspiration and the pellets washed with 1 mL of DPBS and centrifuged (5 min, 500 × g). The supernatants were again removed and the pellets solubilized in 100 μL 1× SDS/DTT and then boiled for 5 min. Each sample was then cooled to room temperature and sonicated (Branson Sonifier 250, duty cycle: 50, output control: 5, cycles: 5) and then 30 μL was loaded on 4–12% Bis-Tris Plus gels and run for 30 min at 200 V with a SDS-PAGE Standards/Broad Range ladder. Proteins were transferred to a 0.2 μm nitrocellulose membrane for 1 hour at 10 V and then Ponceau staining was used to verify equal loading. Membranes were blocked with 2.5% BSA in Tris-buffered saline/0.1% v/v Tween 20 (TBS-T) for 1 hour at room temperature. Cathepsins L and B were detected by primary goat anti-hCathepsin L (R&D, AF952, 0.2 mg mL^–1, 1 : 2000) and goat anti-hCathepsin B (R&D, AF953, 0.2 mg mL^–1, 1 : 1000) antibodies, respectively, followed by incubation with a secondary antibody (IRDye® 800CW, LI-COR, donkey anti-goat, 1 : 10 000). The membranes were incubated with primary antibodies for 2 hours, and with (fluorescent) secondary antibodies for 30 min (both in TBS-T at room temperature). The fluorescence was read at 700 nm (Cyanine5; excitation 685 nm) and 800 nm (secondary antibody; excitation 785 nm) using an Odyssey fluorescence imaging system (LI-COR). The images were analyzed using Image Studio software.

Question: For “Cy5-6-ahx-His-DThr-Phe(F5)-Cys(Bzl)-AOMK [MP-cL3]”, which “incubation time up to which only cathepsin L is labeled (no labeling of cathepsin B)” value (1 μM probe) is on record?
Answer: The value was “up to 8 hours”.

Question: What about the “incubation time after which probe labeling is detectable in cells” value (1 μM probe, 0–18 hours) of the same substance?
Answer: Its value is 1 h.

Question: And the “incubation time up to which only cathepsin L is labeled” value (5 μM probe, 2-16 hours)?
Answer: The value was “up to two”.
